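The compound was tested at five concentrations on cells cultured in 96-well plates, with a 48-hour exposure period. GI50: concentration for 50% inhibition of growth. TGI denotes the concentration required for complete inhibition of growth.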
Legend:
Assay in all cases: NCI anticancer screen, dose series, 48 h
OVCAR-4 ovarian = system: OVCAR-4 ovarian
MDA-MB-231 breast = system: MDA-MB-231 breast
MDA-MB-435 = system: MDA-MB-435
OVCAR-8 ovarian = system: OVCAR-8 ovarian
SR leukemia = system: SR leukemia
SK-OV-3 ovarian = system: SK-OV-3 ovarian
NCI/ADR-RES ovarian = system: NCI/ADR-RES ovarian
RXF 393 renal = system: RXF 393 renal
KM12 colon = system: KM12 colon
ACHN renal = system: ACHN renal

SMILES | GI50 (OVCAR-4 ovarian) [µM] | TGI (OVCAR-4 ovarian) [µM] | GI50 (MDA-MB-231 breast) [µM] | TGI (MDA-MB-231 breast) [µM] | GI50 (MDA-MB-435) [µM] | TGI (MDA-MB-435) [µM] | GI50 (OVCAR-8 ovarian) [µM] | TGI (OVCAR-8 ovarian) [µM] | GI50 (SR leukemia) [µM] | TGI (SR leukemia) [µM] | GI50 (SK-OV-3 ovarian) [µM] | TGI (SK-OV-3 ovarian) [µM] | GI50 (NCI/ADR-RES ovarian) [µM] | TGI (NCI/ADR-RES ovarian) [µM] | GI50 (RXF 393 renal) [µM] | TGI (RXF 393 renal) [µM] | GI50 (KM12 colon) [µM] | TGI (KM12 colon) [µM] | GI50 (ACHN renal) [µM] | TGI (ACHN renal) [µM]
Cc1ncsc1-c1ccc(CNC(=O)[C@@H]2C[C@@H](O)CN2C(=O)[C@@H](NC(=O)C2(C#N)CC2)C(C)(C)C)cc1 | 80.7 | > 100 | > 100 | > 100 | > 100 | > 100 | > 100 | > 100 | 55.4 | > 100 | > 100 | > 100 | > 100 | > 100 | > 100 | > 100 | > 100 | > 100 | > 100 | > 100
CC1=C([Te]c2ccc(O)cc2)C(=O)c2ccccc2C1=O | 1.95 | 4.38 | 1.89 | 5.4 | 2.35 | 5.79 | 2.4 | 8.34 | 0.461 | 2.67 | 1.66 | 4.52 | 2.42 | 8.3 | 2.42 | 9.46 | 1.3 | 3.27 | 1.54 | 3.85
O=C(NO)c1ccc(Cn2c(=O)n(-c3ccccc3F)c(=O)c3ccccc32)cc1 | 1.9 | 12.9 | 3.03 | 7.89 | 1.55 | 3.26 | 1.05 | 5.11 | 1.56 | > 100 | 1.96 | 4.87 | 2.54 | 43 | 1.33 | 2.9 |  |  | 2.04 | 5.59
O=C(Nc1nc2ccc(F)cc2s1)c1cccnc1Nc1ccc(Cl)cc1 | 2.99 | > 100 | 1.88 | 5 | 3.11 | > 100 | 6.26 | > 100 | 2.28 | 9.31 | 2.49 | > 26.5 | 2.36 | > 28.1 | 33.6 | > 100 | 2.61 | 8.54 | 3.08 | > 100
CC1(C)CCC(C)(C)c2c1ccc(O)c2Cc1c(O)ccc2c1C(C)(C)CCC2(C)C |  | 3.53 |  | 3.22 |  | 3.48 |  | 4.53 |  | 6.8 |  | 4.84 |  | 4.43 |  | 3.47 |  | 3.91 |  | 3.19
O=C1OC(c2ccccc2)(c2cc(Br)c(O)c(Br)c2)c2ccccc21 (stereo not drawn) | 22.7 | 78.9 | 25.9 | 86.1 | 22.6 | 77.1 | 29.3 | > 100 | 26 | > 100 | 21.4 | 53.7 | 26 | 84.3 | 18.6 | 36.4 | 21.9 | 60.5 | 34.5 | > 100
COc1ccc(-c2c(-c3cc(OC)c(OC)c(OC)c3)noc2N)cc1 | 0.0249 | 57.5 | 0.06 | 90.1 | < 0.01 |  | 0.0173 | 15.8 | < 0.01 | 29.1 | < 0.011 | 16.5 | < 0.01 | 0.0226 | < 0.01 | 19.8 | < 0.01 | > 36.6 | < 0.0141 | 43.8
CNC(=O)Oc1cc(C)c(/C=C/c2cncc(C(=O)NC)c2)c(C)c1 | > 25 | > 25 | > 25 | > 25 | 8.44 | > 25 | > 25 | > 25 | > 20.4 | > 25 | > 25 | > 25 | > 25 | > 25 | 14.1 | > 25 | > 25 | > 25 | > 25 | > 25
C=CN(C)S(C)(=O)=O | > 100 | > 100 | > 100 | > 100 | > 100 | > 100 | > 100 | > 100 | > 100 | > 100 | > 100 | > 100 | > 100 | > 100 | > 100 | > 100 | > 100 | > 100 | > 100 | > 100
C[C@H]1[C@H]2[C@H]3CC[C@@H]4[C@@]5(C)C/C(=C/c6cccnc6)C(=O)C(C)(C)[C@@H]5CC[C@@]4(C)[C@]3(C)CC[C@]23CO[C@]1(C)[C@@H](C(=O)/C=C\c1cccnc1)C3 | 1.5 | > 50 | 1.27 | 8.01 | 1.17 | 2.93 | 1.59 | > 50 | 0.371 |  | 5.9 | > 50 | 1.54 | > 50 | 0.824 | 1.56 | 0.892 | 1.86 | 1.49 | 4.81
CCc1ccc2c(c1)N(CCO)C1=C(C(=O)OC1)C2c1cccc(Cl)c1 (stereo not drawn) | 0.834 | 28.8 | 1.66 | 15.3 | 0.195 | 0.787 | 1.32 | 26.8 | 0.445 | > 100 | 0.663 | 10.7 | 0.337 | 5.05 | 0.378 | 3.57 | 0.433 | 12.6 | 1.24 | 31.6
O=C(NCc1ccncc1)C12CC3CC(C1)CC(c1ccc(Cl)cc1)(C3)C2 | 10.9 | 32.8 | 12 | 26.2 | 12.7 | 25.3 |  |  | 7.98 | 35.7 | 12.5 | 25.2 | 17.2 | 87.8 | 10.7 | 23.6 | 13.6 | 27.8 | 12.5 | 25
COc1ccc(OC)c(-c2cc(=O)c3c(OC)c(OC)c(OC)c(OC)c3o2)c1 |  | 88.7 |  | > 100 |  | > 100 |  | > 100 |  | > 100 |  | 98.7 |  | 82.8 |  | 77.7 |  |  |  | 71.3
